Measured values as given in patent publication US6737383B1, “Herbicidal oxadiazolidines” (priority 1999, dated 2004).

Key:
wild oat = experiment: Test B pre/postemergence wild oat; format: in vivo, Avena fatua
In short: (§1)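 Response is a visual 0-to-10 score relative to untreated plants, where 0 means no effect and 10 means complete control, taken twelve to sixteen days after application. Treatments went onto soil at planting and onto foliage of 1- to 4-leaf plants, using a surfactant-containing non-phytotoxic solvent.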

purple nutsedge = experiment: Test B pre/postemergence purple nutsedge; format: in vivo, Cyperus rotundus
In short: as §1

crabgrass = experiment: Test B pre/postemergence crabgrass; format: in vivo, Digitaria sanguinalis
In short: as §1

surinam grass = experiment: Test B pre/postemergence surinam grass; format: in vivo, Brachiaria decumbens
In short: as §1

blackgrass = experiment: Test B pre/postemergence blackgrass; format: in vivo, Alopecurus myosuroides
In short: as §1

cocklebur = experiment: Test B pre/postemergence cocklebur; format: in vivo, Xanthium strumarium
In short: as §1

giant foxtail = experiment: Test B pre/postemergence giant foxtail; format: in vivo, Setaria faberii
In short: as §1

corn = experiment: Test B pre/postemergence corn; format: in vivo, Zea mays
In short: as §1

rice = experiment: Test B flood test rice; format: in vivo, Oryza sativa
In short: (§2)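 Each value is a visual injury score relative to controls, with 10 meaning complete control and 0 no effect. Evaluation took place twelve to sixteen days after the 2-leaf-stage plants were treated and kept in the greenhouse.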

smallflower flatsedge = experiment: Test B flood test smallflower flatsedge; format: in vivo, Cyperus difformis
In short: as §2

velvetleaf = experiment: Test B pre/postemergence velvetleaf; format: in vivo, Abutilon theophrasti
In short: as §1

wheat = experiment: Test B pre/postemergence wheat; format: in vivo, Triticum aestivum
In short: as §1

bedstraw = experiment: Test B pre/postemergence bedstraw; format: in vivo, Galium aparine
In short: as §1

bamyardgrass = experiment: Test B flood test barnyardgrass; format: in vivo, Echinochloa crus-galli
In short: as §2

morningglory = experiment: Test B pre/postemergence morningglory; format: in vivo, Ipomoea hederacea
In short: as §1

duck salad = experiment: Test B flood test duck salad; format: in vivo, Heteranthera limosa
In short: as §2

[1] = Postemergence, Rate 125 g/ha, scale of 0 to 10 where 0 is no effect and 10 is complete control
[2] = Preemergence, Rate 62 g/ha, scale 0 to 10 (0 no effect, 10 complete control)
[3] = Preemergence, Rate 125 g/ha, 0 is no effect, 10 is complete control
[4] = Preemergence, Rate 250 g/ha, scale 0 to 10, 0 is no effect, 10 is complete control
[5] = Preemergence, Rate 500 g/ha, scale 0 to 10 (0 no effect, 10 complete control)
[6] = Rate 62 g/ha, Postemergence, scale of 0 to 10 where 0 is no effect and 10 is complete control
[7] = Rate 250 g/ha, Postemergence, scale 0 to 10, 0 is no effect, 10 is complete control
[8] = Rate 500 g/ha, Postemergence, scale 0 to 10
[9] = Postemergence (flood test species), Rate 125 g/ha, scale of 0 to 10 where 0 is no effect and 10 is complete control
[10] = Rate 31 g/ha, Postemergence section (flood test species), scale 0 to 10
[11] = Rate 62 g/ha, Postemergence section, flood test species, scale of 0 to 10 where 0 is no effect and 10 is complete control
[12] = Rate 250 g/ha, Postemergence (flood test), scale 0 to 10, 0 is no effect, 10 is complete control
[13] = Rate 250 g/ha, Pre-emergence, flood-test species, scale 0 to 10, 0 is no effect, 10 is complete control
[14] = Rate 500 g/ha, headed Pre-emergence (flood test species), scale 0 to 10 (0 no effect, 10 complete control)
[15] = Rate 1000 g/ha, Pre-emergence (as headed), scale 0 to 10
[16] = Rate 2000 g/ha, Pre-emergence (as headed), scale 0 to 10

## C=C(C)Cn1c(=O)on(C(=O)N(c2ccc(F)cc2)C(C)C)c1=O [Compound 139]
Wild oat; [1]
  Wild oats plant response rating: 2
Wild oat; [2]
  Wild oats plant response rating: 3
Wild oat; [3]
  Wild oats plant response rating (0 to 10 scale): 7
Wild oat; [4]
  Wild oats plant response rating: 8
Wild oat; [5]
  Wild oats plant response rating: 9
Wild oat; [6]
  Wild oats plant response rating: 2
Wild oat; [7]
  Plant response rating, Wild oats: 4
Wild oat; [8]
  Wild oats plant response rating: 4
Purple nutsedge; [1]
  Nutsedge plant response rating: 0
Purple nutsedge; [2]
  Nutsedge plant response rating: 0
Purple nutsedge; [3]
  Nutsedge plant response rating (0 to 10 scale): 0
Purple nutsedge; [4]
  Nutsedge plant response rating: 0
Purple nutsedge; [5]
  Nutsedge plant response rating: 0
Purple nutsedge; [6]
  Nutsedge plant response rating: 0
Purple nutsedge; [7]
  Plant response rating, Nutsedge: 0
Purple nutsedge; [8]
  Nutsedge plant response rating: 4
crabgrass; [1]
  Crabgrass plant response rating: 8
crabgrass; [2]
  Crabgrass plant response rating: 7
crabgrass; [3]
  Crabgrass plant response rating (0 to 10 scale): 10
crabgrass; [4]
  Crabgrass plant response rating: 10
crabgrass; [5]
  Crabgrass plant response rating: 10
crabgrass; [6]
  Crabgrass plant response rating: 8
crabgrass; [7]
  Plant response rating, Crabgrass: 9
crabgrass; [8]
  Crabgrass plant response rating: 9
Surinam grass; [1]
  B. signalgrass plant response rating: 2
Surinam grass; [2]
  B. signalgrass plant response rating: 0
Surinam grass; [3]
  B. signalgrass plant response rating (0 to 10 scale): 2
Surinam grass; [4]
  B. signalgrass plant response rating: 8
Surinam grass; [5]
  B. signalgrass plant response rating: 9
Surinam grass; [6]
  B. signalgrass plant response rating: 2
Surinam grass; [7]
  Plant response rating, B. signalgrass: 6
Surinam grass; Rate 500 g/ha, Postemergence, scale of 0 to 10 where 0 is no effect and 10 is complete control
  B. signalgrass plant response rating: 7
blackgrass; [1]
  Blackgrass plant response rating: 2
blackgrass; [2]
  Blackgrass plant response rating: 4
blackgrass; [3]
  Blackgrass plant response rating (0 to 10 scale): 6
blackgrass; [4]
  Blackgrass plant response rating: 9
blackgrass; [5]
  Blackgrass plant response rating: 10
blackgrass; [6]
  Blackgrass plant response rating: 2
blackgrass; [7]
  Plant response rating, Blackgrass: 7
blackgrass; [8]
  Blackgrass plant response rating: 8
cocklebur; [1]
  Cocklebur plant response rating: 0
cocklebur; [2]
  Cocklebur plant response rating: 0
cocklebur; [3]
  Cocklebur plant response rating (0 to 10 scale): 0
cocklebur; [4]
  Cocklebur plant response rating: 0
cocklebur; [5]
  Cocklebur plant response rating: 0
cocklebur; [6]
  Cocklebur plant response rating: 0
cocklebur; [7]
  Plant response rating, Cocklebur: 2
cocklebur; [8]
  Cocklebur plant response rating: 2
Giant foxtail; [1]
  Giant foxtail plant response rating: 8
Giant foxtail; [2]
  Giant foxtail plant response rating: 10
Giant foxtail; [3]
  Giant foxtail plant response rating (0 to 10 scale): 10
Giant foxtail; [4]
  Giant foxtail plant response rating: 10
Giant foxtail; [5]
  Giant foxtail plant response rating: 10
Giant foxtail; [6]
  Giant foxtail plant response rating: 6
Giant foxtail; [7]
  Plant response rating, Giant foxtail: 9
Giant foxtail; [8]
  Giant foxtail plant response rating: 9
corn; [1]
  Corn plant response rating: 2
corn; [2]
  Corn plant response rating: 0
corn; [3]
  Corn plant response rating (0 to 10 scale): 0
corn; [4]
  Corn plant response rating: 4
corn; [5]
  Corn plant response rating: 7
corn; [6]
  Corn plant response rating: 0
corn; [7]
  Plant response rating, Corn: 2
corn; [8]
  Corn plant response rating: 2
rice; [9]
  Rice plant response rating: 0
rice; [10]
  Rice plant response rating: 0
rice; [11]
  Rice plant response rating: 0
rice; [12]
  Plant response rating, Rice: 0
rice; [13]
  Rice plant response rating: 0
rice; [14]
  Plant response rating, Rice: 0
rice; [15]
  Rice plant response rating: 0
rice; [16]
  Rice plant response rating: 0
Smallflower flatsedge; [9]
  S. Flatsedge plant response rating: 0
Smallflower flatsedge; Pre-emergence, Rate 1000 g/ha, scale 0 to 10 (0 no effect, 10 complete control)
  S. Flatsedge plant response rating: 0
Smallflower flatsedge; [11]
  S. Flatsedge plant response rating: 0
Smallflower flatsedge; [12]
  Plant response rating, S. Flatsedge: 0
Smallflower flatsedge; [13]
  S. Flatsedge plant response rating: 0
Smallflower flatsedge; Rate 500 g/ha, Pre-emergence, flood test species, scale 0 to 10 (0 no effect, 10 complete control)
  S. Flatsedge plant response rating: 0
Smallflower flatsedge; [16]
  S. Flatsedge plant response rating: 0
velvetleaf; [1]
  Velvetleaf plant response rating: 4
velvetleaf; [2]
  Velvetleaf plant response rating: 2
velvetleaf; [3]
  Velvetleaf plant response rating (0 to 10 scale): 3
velvetleaf; [4]
  Velvetleaf plant response rating: 5
velvetleaf; [5]
  Velvetleaf plant response rating: 7
velvetleaf; [6]
  Velvetleaf plant response rating: 2
velvetleaf; [7]
  Plant response rating, Velvetleaf: 5
velvetleaf; [8]
  Velvetleaf plant response rating: 6
wheat; [1]
  Wheat plant response rating: 2
wheat; [2]
  Wheat plant response rating: 0
wheat; [3]
  Wheat plant response rating (0 to 10 scale): 0
wheat; [4]
  Wheat plant response rating: 2
wheat; [5]
  Wheat plant response rating: 4
wheat; [6]
  Wheat plant response rating: 2
wheat; [7]
  Plant response rating, Wheat: 4
wheat; [8]
  Wheat plant response rating: 4
bedstraw; [1]
  Bedstraw plant response rating: 2
bedstraw; [2]
  Bedstraw plant response rating: 0
bedstraw; [3]
  Bedstraw plant response rating (0 to 10 scale): 0
bedstraw; [4]
  Bedstraw plant response rating: 2
bedstraw; [5]
  Bedstraw plant response rating: 9
bedstraw; [7]
  Plant response rating, Bedstraw: 5
bedstraw; Rate 500 g/ha, Postemergence, scale 0 to 10, 0 no effect, 10 complete control
  Bedstraw plant response rating: 5
bamyardgrass; [9]
  Barnyardgrass plant response rating: 0
bamyardgrass; [10]
  Barnyardgrass plant response rating: 0
bamyardgrass; [11]
  Barnyardgrass plant response rating: 0
bamyardgrass; [12]
  Plant response rating, Barnyardgrass: 0
bamyardgrass; [13]
  Barnyardgrass plant response rating: 0
bamyardgrass; [14]
  Plant response rating, Barnyardgrass: 0
bamyardgrass; [15]
  Barnyardgrass plant response rating: 0
bamyardgrass; Rate 2000 g/ha, Pre-emergence (as headed), scale 0 to 10, 0 no effect, 10 complete control
  Barnyardgrass plant response rating: 6
morningglory; [1]
  Morningglory plant response rating: 5
morningglory; [2]
  Morningglory plant response rating: 0
morningglory; [3]
  Morningglory plant response rating (0 to 10 scale): 0
morningglory; [4]
  Morningglory plant response rating: 0
morningglory; [5]
  Morningglory plant response rating: 0
morningglory; [6]
  Morningglory plant response rating: 3
morningglory; [7]
  Plant response rating, Morningglory: 6
morningglory; [8]
  Morningglory plant response rating: 9
Duck salad; [9]
  Ducksalad plant response rating: 0
Duck salad; [10]
  Ducksalad plant response rating: 0
Duck salad; [11]
  Ducksalad plant response rating: 0
Duck salad; [12]
  Plant response rating, Ducksalad: 0
Duck salad; [13]
  Ducksalad plant response rating: 0
Duck salad; [14]
  Plant response rating, Ducksalad: 0
Duck salad; [15]
  Ducksalad plant response rating: 0
Duck salad; [16]
  Ducksalad plant response rating: 2
